Measured values published in US8084046B2 (priority 2001, dated 2011).
Values joined by “and” are separate entries in the source; they are usually repeats but may differ in a detail not shown here. Identical values can stand only once. Like-named read-outs stand apart in the source and are kept apart here.

What was measured:
Format in all cases: cell-based
[1] = test system: S. aureus (MN8); details: 24 h
[2] = test system: S. aureus (MN8)
[3] = test system: S. aureus MN8; parameters: ngTSST-1 per CFU: scale not given here; details: for % Reduction / ngTSST-1 per CFU: terpineol 0%
[4] = test system: S. aureus MN8

## CC(C)=CCC/C(C)=C/CO [Geraniol]
[1]
  ng TSST-1 per OD Unit: 26

## CC1(O)CCC(C(C)(C)O)CC1 (stereo not shown) [p-menthane-1,8-diol]
[1]
  ng TSST-1 per OD Unit: 792

## C=CC(C)(O)CCC=C(C)C (stereo not shown) [Linalool]
[1]
  ng TSST-1 per OD Unit: 421

## CC1CCC(C(C)C)C(O)C1 (stereo not shown) [Menthol]
[2]
  effect on the growth of S. aureus cells: minimal, if any, effect on the growth of S. aureus cells
[1]
  ng TSST-1 per OD Unit: 33

## myreth-3-myristate [Cetiol]
[3]
  ng TSST-1 per mL: 1147 and 989 and 1556
[3]; Cetiol 2.5 mM
  % Reduction: 0%
  ngTSST-1 per CFU: 371 ng per CFU
[3]; Cetiol 5.0 mM
  % Reduction: 39%
  ngTSST-1 per CFU: 196 ng per CFU
[3]; Cetiol 10.0 mM
  % Reduction: 37%
  ngTSST-1 per CFU: 200 ng per CFU
[4]
  % CFU/mL × 10^6: 5.9 and 5.0 and 4.2
